Source: patent US10597388B2, “Pyridazinone herbicides” (FMC CORPORATION, priority 2014, dated 2020)

Key:
Assay type in all cases: in vivo
[1] = test system: bluegrass (annual bluegrass, Poa annua); test: Test D controlled growth environment herbicide test, pre- and postemergence; conditions: for Bluegrass plant response rating / Plant response rating (scale of 0 to 100), Bluegrass: 31 g ai/ha
Procedure, shortened: (§1)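 Species sown in silt loam and sprayed preemergence, or grown in peat-based medium to 2–18 cm (1- to 4-leaf stage) and sprayed postemergence, with compounds in non-phytotoxic solvent plus surfactant. Visual injury scored versus controls after 14–21 d in a controlled environment, 0 (no effect) to 100 (complete control).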

[2] = test system: bromegrass, downy (downy bromegrass, Bromus tectorum); test: as above; conditions: for Bromegrass, Downy plant response rating / Plant response rating (scale of 0 to 100), Bromegrass, Downy: 31 g ai/ha
Procedure, shortened: as §1

[3] = test system: ryegrass, Italian (Italian ryegrass, Lolium multiflorum); test: as above
Procedure, shortened: as §1

[4] = test system: speedwell (bird's-eye speedwell, Veronica persica); test: as above
Procedure, shortened: as §1

corn (Zea mays) = test: Test E greenhouse herbicide test, pre- and postemergence
Procedure, shortened: (§2)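 Visual rating vs untreated controls, 0 = no effect, 100 = complete control, after 14–21 d greenhouse. Pre: seeded silt loam treated with surfactant-containing solvent formulation. Post: 1–4-leaf plants (2–18 cm) in peat/vermiculite medium.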

[5] = test system: crabgrass, Brazilian (Brazilian crabgrass, Digitaria horizontalis); test: as above
Procedure, shortened: as §2

soybean (Glycine max) = test: as above
Procedure, shortened: as §2

[6] = test system: waterhemp (common waterhemp, Amaranthus rudis); test: as above
Procedure, shortened: as §2

[7] = Postemergence, scale 0 to 100 (0 no effect, 100 complete control)
[8] = Postemergence, 125 g ai/ha, visual rating on scale 0 (no effect) to 100 (complete control), 14 to 21 d
[9] = Postemergence, 250 g ai/ha, scale 0 to 100 (0 no effect, 100 complete control)
[10] = Preemergence, 62 g ai/ha, scale 0 to 100 (0 no effect, 100 complete control)
[11] = Preemergence, 125 g ai/ha, scale 0 to 100 (0 no effect, 100 complete control)
[12] = Preemergence, 250 g ai/ha, scale 0 to 100, 0 no effect, 100 complete control
[13] = postemergence, 62 g ai/ha, scale 0 to 100, 0 no effect, 100 complete control
[14] = Postemergence, 31 g ai/ha, scale 0 to 100 (0 no effect, 100 complete control)
[15] = 62 g ai/ha, Preemergence, scale 0 to 100 (0 no effect, 100 complete control)
[16] = 125 g ai/ha, Preemergence, scale 0 to 100 (0 no effect, 100 complete control)
[17] = Preemergence, 16 g ai/ha, scale 0 to 100, 0 no effect, 100 complete control
[18] = Preemergence, 31 g ai/ha, scale 0 to 100, 0 no effect, 100 complete control
[19] = 62 g ai/ha, Postemergence, scale 0 to 100 (0 no effect, 100 complete control)
[20] = 125 g ai/ha, Postemergence, scale 0 to 100 (0 no effect, 100 complete control)
[21] = Postemergence, 16 g ai/ha, visual, scale 0 no effect to 100 complete control
[22] = Postemergence, 31 g ai/ha, visual, scale 0 no effect to 100 complete control

## COC(=O)Oc1c(C)nn(C)c(=O)c1-c1c(C)sc2ccc(C)cc12 [Compound 80]
[1]; [7]
  Bluegrass plant response rating: 15
[1]; [8]
  Plant response rating, Bluegrass: 35
[1]; [9]
  Plant response rating, Bluegrass: 45
[1]; Preemergence
  Plant response rating (scale of 0 to 100), Bluegrass: 20
[1]; [10]
  Plant response rating, Bluegrass: 55
[1]; [11]
  Plant response rating, Bluegrass: 75
[1]; [12]
  Plant response rating, Bluegrass: 75
[1]; [13]
  Plant response rating, Bluegrass: 35
[2]; [7]
  Bromegrass, Downy plant response rating: 55
[2]; [8]
  Plant response rating, Bromegrass, Downy: 70
[2]; [9]
  Plant response rating, Bromegrass, Downy: 75
[2]; Preemergence
  Plant response rating (scale of 0 to 100), Bromegrass, Downy: 30
[2]; [10]
  Plant response rating, Bromegrass, Downy: 35
[2]; [11]
  Plant response rating, Bromegrass, Downy: 75
[2]; [12]
  Plant response rating, Bromegrass, Downy: 85
[2]; [13]
  Plant response rating, Bromegrass, Downy: 65
[3]; [14]
  Ryegrass, Italian plant response rating: 85
[3]; [8]
  Plant response rating, Ryegrass, Italian: 98
[3]; [9]
  Plant response rating, Ryegrass, Italian: 100
[3]; Preemergence, 31 g ai/ha
  Plant response rating (scale of 0 to 100), Ryegrass, Italian: 90
[3]; [10]
  Plant response rating, Ryegrass, Italian: 90
[3]; [11]
  Plant response rating, Ryegrass, Italian: 95
[3]; [12]
  Plant response rating, Ryegrass, Italian: 100
[3]; [13]
  Plant response rating, Ryegrass, Italian: 95
[4]; [14]
  Speedwell plant response rating: 65
[4]; [8]
  Plant response rating, Speedwell: 85
[4]; [9]
  Plant response rating, Speedwell: 80
[4]; Preemergence, 31 g ai/ha
  Plant response rating (scale of 0 to 100), Speedwell: 65
[4]; [10]
  Plant response rating, Speedwell: 95
[4]; [11]
  Plant response rating, Speedwell: 95
[4]; [12]
  Plant response rating, Speedwell: 100
[4]; [13]
  Plant response rating, Speedwell: 75
Corn (Zea mays); [15]
  Plant response rating, Corn: 0
Corn (Zea mays); [16]
  Plant response rating, Corn: 0
Corn (Zea mays); [17]
  Plant response rating, Corn: 0
Corn (Zea mays); [18]
  Plant response rating, Corn: 0
[5]; [15]
  Plant response rating, Crabgrass, Brazil: 90
[5]; [16]
  Plant response rating, Crabgrass, Brazil: 100
[5]; [17]
  Plant response rating, Crabgrass, Brazil: 65
[5]; [18]
  Plant response rating, Crabgrass, Brazil: 75
Soybean (Glycine max); [15]
  Plant response rating, Soybean: 0
Soybean (Glycine max); [16]
  Plant response rating, Soybean: 0
Soybean (Glycine max); [17]
  Plant response rating, Soybean: 0
Soybean (Glycine max); [18]
  Plant response rating, Soybean: 0
[6]; [15]
  Plant response rating, Waterhemp: 100
[6]; [16]
  Plant response rating, Waterhemp: 100
[6]; [17]
  Plant response rating, Waterhemp: 0
[6]; [18]
  Plant response rating, Waterhemp: 70

## CCCC(=O)Oc1c(C)nn(C)c(=O)c1-c1c(C)sc2ccc(C)cc12 [Compound 105]
[1]; [7]
  Bluegrass plant response rating: 10
[1]; [8]
  Plant response rating, Bluegrass: 20
[1]; [9]
  Plant response rating, Bluegrass: 25
[1]; Preemergence
  Plant response rating (scale of 0 to 100), Bluegrass: 25
[1]; [10]
  Plant response rating, Bluegrass: 30
[1]; [11]
  Plant response rating, Bluegrass: 60
[1]; [12]
  Plant response rating, Bluegrass: 75
[1]; [13]
  Plant response rating, Bluegrass: 10
[2]; [7]
  Bromegrass, Downy plant response rating: 10
[2]; [8]
  Plant response rating, Bromegrass, Downy: 25
[2]; [9]
  Plant response rating, Bromegrass, Downy: 65
[2]; Preemergence
  Plant response rating (scale of 0 to 100), Bromegrass, Downy: 35
[2]; [10]
  Plant response rating, Bromegrass, Downy: 65
[2]; [11]
  Plant response rating, Bromegrass, Downy: 70
[2]; [12]
  Plant response rating, Bromegrass, Downy: 75
[2]; [13]
  Plant response rating, Bromegrass, Downy: 20
[3]; [14]
  Ryegrass, Italian plant response rating: 75
[3]; [8]
  Plant response rating, Ryegrass, Italian: 90
[3]; [9]
  Plant response rating, Ryegrass, Italian: 95
[3]; Preemergence, 31 g ai/ha
  Plant response rating (scale of 0 to 100), Ryegrass, Italian: 85
[3]; Preemergence, 62 g ai/ha
  Plant response rating (scale of 0 to 100), Ryegrass, Italian: 90
[3]; [11]
  Plant response rating, Ryegrass, Italian: 95
[3]; [12]
  Plant response rating, Ryegrass, Italian: 98
[3]; [13]
  Plant response rating, Ryegrass, Italian: 85
[4]; [14]
  Speedwell plant response rating: 45
[4]; [8]
  Plant response rating, Speedwell: 65
[4]; [9]
  Plant response rating, Speedwell: 75
[4]; [13]
  Plant response rating, Speedwell: 50
Corn (Zea mays); [19]
  Plant response rating, Corn: 15
Corn (Zea mays); [15]
  Plant response rating, Corn: 0
Corn (Zea mays); [20]
  Plant response rating, Corn: 20
Corn (Zea mays); [16]
  Plant response rating, Corn: 0
Corn (Zea mays); [21]
  Plant response rating, Corn: 0
Corn (Zea mays); [22]
  Plant response rating, Corn: 5
Corn (Zea mays); [17]
  Plant response rating, Corn: 0
Corn (Zea mays); [18]
  Plant response rating, Corn: 0
[5]; [19]
  Plant response rating, Crabgrass, Brazil: 40
[5]; [15]
  Plant response rating, Crabgrass, Brazil: 35
[5]; [20]
  Plant response rating, Crabgrass, Brazil: 50
[5]; [16]
  Plant response rating, Crabgrass, Brazil: 75
[5]; [21]
  Plant response rating, Crabgrass, Brazil: 5
[5]; [22]
  Plant response rating, Crabgrass, Brazil: 20
[5]; [18]
  Plant response rating, Crabgrass, Brazil: 0
Soybean (Glycine max); [15]
  Plant response rating, Soybean: 0
Soybean (Glycine max); [20]
  Plant response rating, Soybean: 25
Soybean (Glycine max); [16]
  Plant response rating, Soybean: 75
Soybean (Glycine max); [21]
  Plant response rating, Soybean: 0
Soybean (Glycine max); [22]
  Plant response rating, Soybean: 10
Soybean (Glycine max); [17]
  Plant response rating, Soybean: 0
Soybean (Glycine max); [18]
  Plant response rating, Soybean: 0
[6]; [15]
  Plant response rating, Waterhemp: 90
[6]; [20]
  Plant response rating, Waterhemp: 90
[6]; [16]
  Plant response rating, Waterhemp: 100
[6]; [21]
  Plant response rating, Waterhemp: 60
[6]; [22]
  Plant response rating, Waterhemp: 70
[6]; [17]
  Plant response rating, Waterhemp: 70
[6]; [18]
  Plant response rating, Waterhemp: 80
